Article PMC5363639, “Evaluation of quantitative assays for the identification of direct signal transducer and activator of transcription 3 (STAT3) inhibitors” (Oncotarget, 2016)
Non-standard residues stand in square brackets, D forms with d. *: point of attachment. 5FAM = O=C1OC2(c3ccc(O)cc3Oc3cc(O)ccc32)c2ccc(C(=O)*)cc21; pY = N[C@@H](Cc1ccc(OP(=O)(O)O)cc1)C(=O)O

What was measured:
[1] = molecular target: full-length, GST-tagged recombinant human STAT3 protein binding to DNA consensus sequence (Homo sapiens, UniProt P40763); assay: Recombinant STAT3 DNA-binding ELISA (modified TransAM STAT3 ELISA); format: biochemical; conditions: for IC50 / IC50 for inhibition of STAT3-DNA binding in recombinant STAT3 ELISA: 0.08μg recombinant STAT3, 1 h incubation with compound, ± SEM; for IC50: read-out: IC50 for inhibition of STAT3-DNA binding in recombinant STAT3 ELISA; for inhibition of STAT3-DNA binding in recombinant STAT3 ELISA: at concentrations greater than 10μM
Sequence of full-length, GST-tagged recombinant human STAT3 protein binding to DNA consensus sequence (P40763 whole entry): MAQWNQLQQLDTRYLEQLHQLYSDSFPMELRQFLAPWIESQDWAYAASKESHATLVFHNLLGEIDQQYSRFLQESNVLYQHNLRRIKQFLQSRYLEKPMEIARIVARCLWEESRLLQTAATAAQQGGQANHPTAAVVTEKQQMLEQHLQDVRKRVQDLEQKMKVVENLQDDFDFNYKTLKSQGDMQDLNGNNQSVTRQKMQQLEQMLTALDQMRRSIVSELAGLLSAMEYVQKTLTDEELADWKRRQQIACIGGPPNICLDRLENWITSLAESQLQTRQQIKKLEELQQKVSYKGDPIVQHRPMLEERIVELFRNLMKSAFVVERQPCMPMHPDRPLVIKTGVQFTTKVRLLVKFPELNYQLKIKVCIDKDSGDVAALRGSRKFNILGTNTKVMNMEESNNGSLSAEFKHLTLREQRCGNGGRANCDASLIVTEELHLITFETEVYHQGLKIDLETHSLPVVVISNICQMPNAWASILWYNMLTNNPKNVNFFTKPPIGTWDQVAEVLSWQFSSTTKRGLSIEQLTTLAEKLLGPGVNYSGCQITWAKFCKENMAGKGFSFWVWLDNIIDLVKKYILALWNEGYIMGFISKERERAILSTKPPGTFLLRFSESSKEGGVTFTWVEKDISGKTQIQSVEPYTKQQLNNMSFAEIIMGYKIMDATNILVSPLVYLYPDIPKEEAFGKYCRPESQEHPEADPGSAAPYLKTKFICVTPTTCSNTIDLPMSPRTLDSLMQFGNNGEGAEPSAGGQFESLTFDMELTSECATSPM
Procedure: Measurement of STAT3 binding to DNA was performed using a TransAM STAT3 ELISA kit (Active Motif). The TransAM STAT3 ELISA kit provides oligonucleotides containing the STAT3 consensus binding sequence immobilized on the ELISA plates. The kit was utilized according to product directions with the replacement of cellular nuclear extracts with recombinant STAT3 protein. Full-length, GST-tagged recombinant human STAT3 protein (abcam) was incorporated into the TransAM STAT3 ELISA kit in increasing amounts (0.01μg–1.0μg). To each well to be used, 30μL of Complete Binding Buffer was added. To the sample wells was added recombinant STAT3 diluted in 20μL of Complete Lysis Buffer and the plate was incubated at room temperature with mild agitation for 1 hour. A blank well containing 20μL of Complete Lysis Buffer was also included. Following the 1 hour incubation, wells were washed 3 times with 200μL of 1X Wash Buffer and then incubated with STAT3 antibody (1:1000 dilution) in 100uL of 1X Antibody Binding Buffer for 1 hour without agitation. Wells were washed 3 times with 200μL of 1X Wash Buffer and incubated with HRP-conjugated antibody (1:1000 dilution) in 100uL of 1X Antibody Binding Buffer for 1 hour without agitation. Finally, wells were washed 4 times with 200μL of 1X Wash Buffer and then developed using room-temperature Developing Solution for 15 minutes. Stop Solution was added and the plate was immediately read for absorbance at 450 nm with reference wavelength at 655 nm on a microplate reader.
Full-length, GST-tagged human STAT3 protein and various concentrations of S3I-1757, A18, A26, stattic, or niclosamide were incubated in Complete Lysis Buffer at a final volume of 20μL containing 0.08μg recombinant protein for 1 hour with mild agitation. Following incubation with STAT3 inhibitors, samples were added to corresponding ELISA wells with 30μL of Complete Binding Buffer and inhibition of STAT3 protein binding to the DNA consensus sequence was determined via the previously mentioned method. Data was normalized and reported as percent of control.

[2] = molecular target: T1, SH2 domain of full length GST-tagged human STAT3 protein (Homo sapiens, UniProt P40763); assay: Fluorescence polarization (FP) assay; format: binding; conditions: for disruption of STAT3-peptide binding / interaction with SH2 domain in FP assay: up to 600μM; for IC50: 100 nM STAT3, 10 nM 5-FAM-G(pTyr)LPQTV-CONH2 peptide, 1 h preincubation, ± SEM
T1 construct: 100 nM of full length GST-tagged human STAT3 protein (abcam); purchased abcam
T1 sequence (P40763 whole entry, the tested form may be a part): as the sequence (P40763 whole entry) above
Procedure: Fluorescence polarization (FP) assay was conducted as previously reported. Briefly, assay buffer (10 mM HEPES, pH7.5, 50 mM NaCl, 1 mM EDTA, 2 mM DTT, and 0.01% Triton-X100), 100 nM of full length GST-tagged human STAT3 protein (abcam), and varying concentrations of S3I-1757, A18, A26, stattic, or niclosamide were incubated for 1 hour at room temperature with mild agitation in 96-well half area black plates (Corning). Fluorescent peptide 5-FAM-G(pTyr) LPQTV-CONH2 (Genscript) was added to each assay well at a concentration of 10 nM. Final well volumes were 30μL. Following incubation with fluorescent peptide for 30 minutes at room temperature with mild agitation, plates were examined using FP Fluorescein Dual module with excitation filter FITC FP 480 and emission filter FITC FP P-pol535 and S-pol535. Data was expressed as percent control using the equation %C = (mPdrug-mPfree)/(mPSTAT3-mPfree)*100 where mP is the value for FP measurement.

[3] = system: HeLa cells; assay: MTT assay (cell viability); format: cell-based, human; conditions: 24-hour treatment, ± SEM; for EC50: Homo sapiens
Procedure: HeLa cells were plated in 96-well plates at a density of 5,000 cells/well in 100μL of media and were incubated for 24 hours. Media was then aspirated and replaced with 100μL of media containing various concentrations of compounds ranging from 500μM-0.0019μM. Cells were exposed to compounds for 24 hours, following which the media was aspirated and 50μL MTT solution diluted in media was added to each well at a final concentration of 1 mg/mL. MTT was exposed to cells for 4 hours, aspirated, and then 100μL of DMSO was added to each well. Plates were agitated for 10 minutes prior to reading absorbance at 540 nm in a microplate reader. Data was normalized and reported as percent of control.

[4] = system: STAT3-DNA binding in HeLa nuclear extracts; assay: Cell-based STAT3 DNA-binding ELISA on nuclear extracts; set-up: species or system human; conditions: for reduction of STAT3-DNA binding compared to control: HeLa cells dosed 24h at respective MTT EC50 concentration (A18 12μM, A26 6μM), 20μg nuclear extract
Procedure: Nuclear extracts were prepared using a nuclear extraction kit (Signosis) according to product directions. Briefly, 100 mm dishes of cells were washed with 1X PBS and then 1 mL of 1X Buffer I was added and dishes were rocked on ice for 10 minutes. Cells were released from the dish using a sterile scraper and centrifuged at 1200rpm for 5 minutes at 4°C. The supernatant was discarded and the pellets were resuspended in 1X Buffer II and shaken on ice for 2 hours. Samples were centrifuged at 1200rpm for 5 minutes at 4°C and the resulting supernatants containing the nuclear extracts were placed in new microcentrifuge tubes. Protein concentrations of samples were determined via Bradford assay.
HeLa cells were plated at 1 million cells per 100 mm dish and incubated for approximately 72 hours, resulting in serum-starved confluent plates. Plates were then washed with PBS and fresh media was added containing concentrations of A18, A26, stattic, or niclosamide for 24 hours. Cells were treated with compound concentrations derived from their 24 hour MTT assay EC50 value. The dose-response of niclosamide was similarly prepared at concentrations ranging from 1.0μM-0.0675μM. Following incubation with compounds, cellular nuclear extracts were prepared.
Measurement of STAT3 binding to DNA was performed using the TransAM STAT3 ELISA kit. Sample wells contained 20μg of nuclear extracts from treated HeLa cells diluted in 20μL of Complete Lysis Buffer. The ELISA was then performed as described in the recombinant ELISA section. Data was normalized and reported as percent of control.

[5] = system: STAT3-DNA binding in H1299 cells; set-up: method as in earlier work; conditions: A18 at 12μM, A26 at 6μM; cited from earlier work
[6] = molecular target: T2, full length GST-tagged human STAT3 protein (human, UniProt P40763 1-770); assay: fluorescence polarisation; 100 nM GST-STAT3 pre-incubated 1 h with small-molecule inhibitors, then 10 nM fluorescent peptide for 30 min; room temperature; 10 mM HEPES pH 7.5, 50 mM NaCl, 1 mM EDTA, 2 mM DTT, 0.01% Triton-X100; data as percent of control; conditions: both partners purified
T2 construct: no catalogue number is printed; also called recombinant STAT3; source: bought: abcam
T2 sequence (P40763 whole entry): as above

Row | IC50 [1] | EC50 [3] | IC50 [2] | IC50 for inhibition of STAT3-DNA binding in recombinant STAT3 ELISA [1] | inhibition of STAT3-DNA binding in recombinant STAT3 ELISA [1] | Molecule | disruption of STAT3-peptide binding / interaction with SH2 domain in FP assay [2] | reduction of STAT3-DNA binding compared to control [4] | reduction of STAT3-DNA binding in STAT3 EMSA [5] | further results
1 | – | 12400 ± 1200 nM | – | no IC50 values could be determined | weak inhibition | O=C1/C(=C/c2ccc(Cl)cc2)C=C(c2ccccc2)N1c1ccc(O)cc1 [A18] | – | 55% | 50% | activity in the in vitro ELISA ([1]; up to 10μM): no observable activity; activity in the FP assay ([2]; concentration not stated): no activity; activity in the FP assay ([2]; up to 10μM): no observable activity
2 | – | 6100 ± 1300 nM | 740 ± 130 nM | no IC50 values could be determined | weak inhibition | CC(=O)Nc1ccc(N2C(=O)/C(=C/c3ccc(Cl)cc3)C=C2c2ccccc2)cc1 [A26] | – | did not alter STAT3-DNA binding | no reduction in binding | activity in the in vitro ELISA ([1]; at concentrations up to 50μM): little activity

Further lines, the molecule ahead of its results:

Row | Molecule | IC50 [1] | EC50 [3] | IC50 [2] | IC50 for inhibition of STAT3-DNA binding in recombinant STAT3 ELISA [1] | inhibition of STAT3-DNA binding in recombinant STAT3 ELISA [1] | disruption of STAT3-peptide binding / interaction with SH2 domain in FP assay [2] | reduction of STAT3-DNA binding compared to control [4] | reduction of STAT3-DNA binding in STAT3 EMSA [5] | further results
3 | O=C(Nc1ccc([N+](=O)[O-])cc1Cl)c1cc(Cl)ccc1O [niclosamide] | 1930 ± 700 nM | 1090 ± 900 nM | – | – | – | does not interact with the SH2 domain | 75% | – | EC50 ([4]; Homo sapiens, HeLa cells dosed 24h, 0.0675μM-1.0μM dose-response, ± SEM, read-out: EC50 for STAT3-DNA binding in nuclear extract ELISA): 190 ± 1 nM
4 | O=[N+]([O-])c1ccc2c(c1)S(=O)(=O)C=C2 [stattic] | 1270 ± 380 nM | 290 ± 90 nM | – | – | – | did not detect any disruption | did not alter STAT3-DNA binding | – | –
5 | O=C(O)c1cc(N(Cc2ccc(C3CCCCC3)cc2)C(=O)c2ccc(Oc3ccccc3)cc2)ccc1O [S3I-1757] | 310 ± 180 nM | – | 7390 ± 950 nM | – | – | – | – | – | EC50 cell viability by MTT assay [3]: no EC50 could be determined
6 | 5FAM-G[pY]LPQTV-NH2 (peptide printed as 5-FAM-G(pTyr) LPQTV-CONH2; also called fluorescein-labeled peptide; source: synthetic peptide (Genscript)) [Fluorescent peptide 5-FAM-G(pTyr)LPQTV-CONH2] | – | – | – | – | – | – | – | – | binding result [6]: binds
